Data as given in PubChem BioAssay AID248 (DTP/NCI, 2004).
“And” between values parts separate entries of the source, which are not always exact repeats. Equal values may be shown once. Inconclusive results and toxic doses are left out. No stated cut-off is given here; in the data, active means T/C of 150% or more; inactive means T/C below 125%.

System: L1210 leukemia ip in BDF1 mice, survival T/C
Assay: NCI In Vivo Anticancer Drug Screen. Data for tumor model L1210 Leukemia (intraperitoneal) in B6D2F1 (BDF1) mice
Conditions: endpoint: mean survival time, higher = longer survival
Outline: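 Tumor cells were implanted, animals were treated, and survival was followed. The result divides the treated measurement by the vehicle-control measurement.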

[1] = dose: 100.0 mg/kg/injection, schedule: Q01DX009 (ip), vehicle: saline
[2] = dose: 200.0 mg/kg/injection, schedule: Q01DX009 (ip), vehicle: saline
[3] = dose: 400.0 mg/kg/injection, schedule: Q01DX009 (ip), vehicle: saline
[4] = dose: 100.0 mg/kg/injection, schedule: Q04DX003 (ip), vehicle: Klucel (hydroxypropylcellulose) (HPC)
[5] = dose: 200.0 mg/kg/injection, schedule: Q04DX003 (ip), vehicle: Klucel (hydroxypropylcellulose) (HPC)
[6] = dose: 400.0 mg/kg/injection, schedule: Q04DX003 (ip), vehicle: Klucel (hydroxypropylcellulose) (HPC)
[7] = dose: 100.0 mg/kg/injection, schedule: Q04DX002 (ip), vehicle: Klucel (hydroxypropylcellulose) (HPC)
[8] = dose: 200.0 mg/kg/injection, schedule: Q04DX002 (ip), vehicle: Klucel (hydroxypropylcellulose) (HPC)
[9] = dose: 400.0 mg/kg/injection, schedule: Q04DX002 (ip), vehicle: Klucel (hydroxypropylcellulose) (HPC)
[10] = dose: 100.0 mg/kg/injection, schedule: Q01DX009 (ip), vehicle: Klucel (hydroxypropylcellulose) (HPC)
[11] = dose: 200.0 mg/kg/injection, schedule: Q01DX009 (ip), vehicle: Klucel (hydroxypropylcellulose) (HPC)
[12] = dose: 400.0 mg/kg/injection, schedule: Q01DX009 (ip), vehicle: Klucel (hydroxypropylcellulose) (HPC)
[13] = dose: 400.0 mg/kg/injection, schedule: Q01DX001 (ip), vehicle: saline
[14] = dose: 100.0 mg/kg/injection, schedule: Q01DX001 (ip), vehicle: saline
[15] = dose: 200.0 mg/kg/injection, schedule: Q01DX001 (ip), vehicle: saline
[16] = dose: 75.0 mg/kg/injection, schedule: Q01DX001 (ip), vehicle: carboxymethylcellulose (CMC)

Measured: T/C

Cc1ccc(C2CCCCC2OS(=O)(=O)c2ccc(C)cc2)cc1 (configuration not stated)
inactive: dose: 100.0 mg/kg/injection, schedule: Q01DX001 (ip), vehicle: steriod suspending solution 102 % of control | dose: 200.0 mg/kg/injection, schedule: Q01DX001 (ip), vehicle: steriod suspending solution 95 % of control | dose: 400.0 mg/kg/injection, schedule: Q01DX001 (ip), vehicle: steriod suspending solution 109 % of control

COc1ccc2c(c1)N(C(=O)C(Cl)(Cl)Cl)Cc1ccccc1C2=O
inactive: [1] 87 % of control | [2] 93 % of control | [3] 96 % of control

NC(N)=N/N=C/c1ccc(C(=O)O)cc1
inactive: dose: 15.0 mg/kg/injection, schedule: Q01DX Z (ip), vehicle: saline 103 % of control | dose: 30.0 mg/kg/injection, schedule: Q01DX Z (ip), vehicle: saline 104 % of control | dose: 60.0 mg/kg/injection, schedule: Q01DX Z (ip), vehicle: saline 106 % of control | dose: 120.0 mg/kg/injection, schedule: Q01DX Z (ip), vehicle: saline 110 % of control | dose: 120.0 mg/kg/injection, schedule: Q01DX Z (oral), vehicle: saline 92 % of control | dose: 240.0 mg/kg/injection, schedule: Q01DX Z (ip), vehicle: saline 87 % of control | dose: 240.0 mg/kg/injection, schedule: Q01DX Z (oral), vehicle: saline 90 % of control | dose: 480.0 mg/kg/injection, schedule: Q01DX Z (oral), vehicle: saline 101 % of control | dose: 960.0 mg/kg/injection, schedule: Q01DX Z (oral), vehicle: saline 92 % of control

C1COCOC1
inactive: dose: 50.0 mg/kg/injection, schedule: Q01DX009 (ip), vehicle: acetone 109 % of control | dose: 100.0 mg/kg/injection, schedule: Q01DX009 (ip), vehicle: acetone 106 % of control | dose: 200.0 mg/kg/injection, schedule: Q01DX009 (ip), vehicle: acetone 119 % of control

CC(CC(=O)NC(N)=O)(NC(N)=O)NC(N)=O
inactive: dose: 100.0 mg/kg/injection, schedule: Q01DX001 (ip), vehicle: Klucel (hydroxypropylcellulose) (HPC) 100 % of control | dose: 200.0 mg/kg/injection, schedule: Q01DX001 (ip), vehicle: Klucel (hydroxypropylcellulose) (HPC) 101 % of control | dose: 400.0 mg/kg/injection, schedule: Q01DX001 (ip), vehicle: Klucel (hydroxypropylcellulose) (HPC) 95 % of control

NC1(C(=O)c2ccccc2)CC2CCC1C2 (configuration not stated)
inactive: [4] 101 % of control | [5] 98 % of control | [6] 103 % of control

C=CCSc1nc(N)nc2c1ncn2C1CC(O)C(CO)O1 (configuration not stated)
inactive: dose: 100.0 mg/kg/injection, schedule: Q01DX005 (ip), vehicle: saline 102 % of control | [1] 102 % of control | dose: 200.0 mg/kg/injection, schedule: Q01DX005 (ip), vehicle: saline 104 % of control | [2] 109 % of control | [3] 109 % of control

CCOC(=O)Nc1cc(Cl)c([N+](=O)[O-])c(N)n1
inactive: dose: 50.0 mg/kg/injection, schedule: Q01DX001 (ip), vehicle: other 106 % of control | dose: 100.0 mg/kg/injection, schedule: Q01DX001 (ip), vehicle: other 101 % of control | dose: 100.0 mg/kg/injection, schedule: Q04DX003 (ip), vehicle: saline with Tween-80 92 % of control | dose: 200.0 mg/kg/injection, schedule: Q01DX001 (ip), vehicle: other 109 % of control | dose: 200.0 mg/kg/injection, schedule: Q04DX003 (ip), vehicle: saline with Tween-80 116 % of control | dose: 400.0 mg/kg/injection, schedule: Q01DX001 (ip), vehicle: other 104 % of control | dose: 400.0 mg/kg/injection, schedule: Q04DX003 (ip), vehicle: saline with Tween-80 104 % of control

O=C(O)CC(c1ccccc1)C(Nc1ccc2ccccc2c1)C(=O)O (configuration not stated)
inactive: [7] 89 % of control | [8] 100 % of control | [9] 96 % of control

CC(C)(C)NC(=O)Oc1ccc(-c2ccccc2)cc1
inactive: [10] 99 % of control | [11] 95 % of control | [12] 95 % of control

Oc1c(Br)cc(Br)cc1/C=C/NC(=S)NC1CC2CC1C1C=CCC21 (configuration not stated)
inactive: [10] 105 % of control | [11] 94 % of control | [12] 97 % of control

Nc1ccc(F)c(Cl)c1
inactive: dose: 100.0 mg/kg/injection, schedule: Q04DX002 (ip), vehicle: saline 121 % of control | dose: 200.0 mg/kg/injection, schedule: Q04DX002 (ip), vehicle: saline 98 % of control | dose: 400.0 mg/kg/injection, schedule: Q04DX002 (ip), vehicle: saline 105 % of control

O=c1[nH]cncc1F
inactive: dose: 264.0 mg/kg/injection, schedule: Q01DX001 (ip), vehicle: saline 92 % of control | [13] 100 % of control and 112 % of control

COc1ccc(/C(N=Nc2ccccc2)=N/N=C(N)N)cc1
inactive: dose: 20.0 mg/kg/injection, schedule: Q01DX001 (ip), vehicle: steriod suspending solution 105 % of control | dose: 40.0 mg/kg/injection, schedule: Q01DX001 (ip), vehicle: steriod suspending solution 94 % of control | dose: 80.0 mg/kg/injection, schedule: Q01DX001 (ip), vehicle: steriod suspending solution 96 % of control

COC(F)(F)C(Cl)Cl
inactive: [14] 95 % of control | [15] 101 % of control | [13] 95 % of control

Cc1cc(C)cc(OCC(=O)O)c1
inactive: [4] 95 % of control | [5] 90 % of control | [6] 106 % of control

CCCCCCCCCCCCCCCCC(=O)OCC
inactive: [16] 91 % of control

Cc1ccn2c(=O)c(CCBr)c(C)nc2c1
inactive: dose: 4.7 mg/kg/injection, schedule: Q01DX009 (ip), vehicle: saline 101 % of control | dose: 9.4 mg/kg/injection, schedule: Q01DX009 (ip), vehicle: saline 100 % of control | dose: 18.8 mg/kg/injection, schedule: Q01DX009 (ip), vehicle: saline 91 % of control | dose: 18.8 mg/kg/injection, schedule: Q04DX003 (ip), vehicle: saline 94 % of control

COc1cc(C(=O)NCc2cccs2)cc(OC)c1OC
inactive: [7] 102 % of control | [8] 94 % of control | [9] 94 % of control

O=C(NCCCOc1ccc([N+](=O)[O-])cc1Cl)Nc1cccc(S(=O)(=O)F)c1
inactive: [10] 92 % of control | [4] 106 % of control | [11] 98 % of control | [5] 103 % of control | [12] 103 % of control | [6] 95 % of control

CC(C)=CCN(CC=C(C)C)CCC(C(N)=O)c1cccc2ccccc12 (configuration not stated)
inactive: dose: 6.25 mg/kg/injection, schedule: Q04DX003 (ip), vehicle: Klucel (hydroxypropylcellulose) (HPC) 93 % of control | dose: 12.5 mg/kg/injection, schedule: Q04DX003 (ip), vehicle: Klucel (hydroxypropylcellulose) (HPC) 93 % of control | dose: 25.0 mg/kg/injection, schedule: Q04DX003 (ip), vehicle: Klucel (hydroxypropylcellulose) (HPC) 98 % of control

O=C(CCl)NCc1ccc(Cl)c(C(=O)O)c1
inactive: [14] 103 % of control | dose: 100.0 mg/kg/injection, schedule: Q04DX003 (ip), vehicle: saline 98 % of control | [15] 99 % of control | dose: 200.0 mg/kg/injection, schedule: Q04DX003 (ip), vehicle: saline 88 % of control | [13] 89 % of control | dose: 400.0 mg/kg/injection, schedule: Q04DX003 (ip), vehicle: saline 96 % of control

C[N+](C)(C)CCOC(=O)c1ccccc1CBr
inactive: dose: 1.5 mg/kg/injection, schedule: Q04DX002 (ip), vehicle: other 98 % of control | dose: 3.0 mg/kg/injection, schedule: Q04DX002 (ip), vehicle: other 90 % of control | dose: 3.13 mg/kg/injection, schedule: Q01DX009 (ip), vehicle: saline 101 % of control | dose: 6.0 mg/kg/injection, schedule: Q04DX002 (ip), vehicle: other 105 % of control | dose: 6.25 mg/kg/injection, schedule: Q01DX009 (ip), vehicle: saline 97 % of control | dose: 6.25 mg/kg/injection, schedule: Q04DX003 (ip), vehicle: saline 105 % of control | dose: 12.5 mg/kg/injection, schedule: Q04DX003 (ip), vehicle: saline 91 % of control

CC(C)C(COC(=O)c1ccc(N)cc1)NC1CCCCC1C (configuration not stated)
inactive: [16] 97 % of control | dose: 150.0 mg/kg/injection, schedule: Q01DX001 (ip), vehicle: carboxymethylcellulose (CMC) 95 % of control | dose: 300.0 mg/kg/injection, schedule: Q01DX001 (ip), vehicle: carboxymethylcellulose (CMC) 89 % of control
